Species on record: Rattus norvegicus
Assay: Open TG-GATES - Regimen: Daily Repeat
Format: toxicity, organism-based, Sprague-Dawley
Set-up: regimen Daily Repeat, gender Male, age 6 weeks
Details: in vivo, po, route gavage; for APTT / Bas / Eos / Fbg / Hb / Ht / Lym / MCH / MCHC / MCV / Mono / Neu / PT / Plat / RBC / Ret / WBC: tissue Blood; for KIDNEY_L / KIDNEY_R / KIDNEY_TOTAL: tissue Kidney; for LIVER: tissue Liver; for A/G / ALP / ALT / AST / BUN / CRE / Ca / Cl / DBIL / GLC / IP / K / LDH / Na / PL / RALB / TBIL / TC / TG / TP / gamma-GTP: tissue Plasma
[1] = 50 mg/kg, 72 h, dose level Middle, time 3 day
[2] = 50 mg/kg, […], dose level Middle, time 7 day
[3] = 50 mg/kg, […], dose level Middle, time 14 day
[4] = 50 mg/kg, […], dose level Middle, time 28 day
[5] = 150 mg/kg, 72 h, dose level High, time 3 day
[6] = 150 mg/kg, […], dose level High, time 7 day
[7] = 150 mg/kg, […], dose level High, time 14 day
[8] = 150 mg/kg, […], dose level High, time 28 day

O=c1ccc2ccccc2o1 [COUMARIN]
TERMINAL_BW [1]: 194.4 g
APTT [1]: 14.9 s
Bas [1]: 0%
Eos [1]: 1.2%
Fbg [1]: 201.2 mg/dL
Hb [1]: 13.2 g/dL
Ht [1]: 40.2%
Lym [1]: 71.6%
MCH [1]: 21.3 pg
MCHC [1]: 33%
MCV [1]: 64.5 fL
Mono [1]: 6.2%
Neu [1]: 21%
PT [1]: 11.4 s
Plat [1]: 114.2 x10_4/uL
RBC [1]: 623.4 x10_4/ul
Ret [1]: 7.4%
WBC [1]: 101.6 x10_2/uL
KIDNEY_L [1]: 0.9 g
KIDNEY_R [1]: 0.9 g
KIDNEY_TOTAL [1]: 1.8 g
LIVER [1]: 10 g
A/G [1]: 1.9
ALP [1]: 1143 IU/L
ALT [1]: 43.8 IU/L
AST [1]: 65.4 IU/L
BUN [1]: 14.2 mg/dL
CRE [1]: 0.5 mg/dL
Ca [1]: 10.9 mg/dL
Cl [1]: 106 meq/L
DBIL [1]: 0.03 mg/dL
GLC [1]: 182.4 mg/dL
IP [1]: 7.6 mg/dL
K [1]: 5.2 meq/L
LDH [1]: 94 IU/L
Na [1]: 139.4 meq/L
PL [1]: 150.6 mg/dL
RALB [1]: 3.7 g/dL
TBIL [1]: 0.3 mg/dL
TC [1]: 95.4 mg/dL
TG [1]: 37 mg/dL
TP [1]: 5.7 g/dL
gamma-GTP [1]: 1.2 IU/L
TERMINAL_BW [2]: 221.4 g
TERMINAL_BW [3]: 270.1 g
TERMINAL_BW [4]: 361.7 g
APTT [2]: 16.9 s
Bas [2]: 0%
Eos [2]: 1%
Fbg [2]: 218 mg/dL
Hb [2]: 13.4 g/dL
Ht [2]: 39.9%
Lym [2]: 82.8%
MCH [2]: 21.3 pg
MCHC [2]: 33.4%
MCV [2]: 63.9 fL
Mono [2]: 3.2%
Neu [2]: 13.4%
PT [2]: 11.3 s
Plat [2]: 120.8 x10_4/uL
RBC [2]: 625 x10_4/ul
Ret [2]: 6.2%
WBC [2]: 135.8 x10_2/uL
APTT [3]: 17.5 s
Bas [3]: 0%
Eos [3]: 0.6%
Fbg [3]: 249 mg/dL
Hb [3]: 13.8 g/dL
Ht [3]: 41.7%
Lym [3]: 87%
MCH [3]: 20.1 pg
MCHC [3]: 33.2%
MCV [3]: 60.5 fL
Mono [3]: 3.8%
Neu [3]: 8.8%
PT [3]: 11.3 s
Plat [3]: 120.6 x10_4/uL
RBC [3]: 689.8 x10_4/ul
Ret [3]: 4.8%
WBC [3]: 163.9 x10_2/uL
APTT [4]: 19 s
Bas [4]: 0%
Eos [4]: 1%
Fbg [4]: 239.2 mg/dL
Hb [4]: 14.2 g/dL
Ht [4]: 42.4%
Lym [4]: 81%
MCH [4]: 19.1 pg
MCHC [4]: 33.6%
MCV [4]: 56.8 fL
Mono [4]: 4.2%
Neu [4]: 14.2%
PT [4]: 11.6 s
Plat [4]: 109.4 x10_4/uL
RBC [4]: 745.8 x10_4/ul
Ret [4]: 3.1%
WBC [4]: 125.8 x10_2/uL
KIDNEY_L [2]: 1 g
KIDNEY_R [2]: 1 g
KIDNEY_TOTAL [2]: 2.1 g
KIDNEY_L [3]: 1.2 g
KIDNEY_R [3]: 1.2 g
KIDNEY_TOTAL [3]: 2.3 g
KIDNEY_L [4]: 1.4 g
KIDNEY_R [4]: 1.4 g
KIDNEY_TOTAL [4]: 2.7 g
LIVER [2]: 11.3 g
LIVER [3]: 14.8 g
LIVER [4]: 19 g
A/G [2]: 2
ALP [2]: 996 IU/L
ALT [2]: 41 IU/L
AST [2]: 54.2 IU/L
BUN [2]: 15 mg/dL
CRE [2]: 0.6 mg/dL
Ca [2]: 11 mg/dL
Cl [2]: 104.8 meq/L
DBIL [2]: 0.04 mg/dL
GLC [2]: 193.6 mg/dL
IP [2]: 7.7 mg/dL
K [2]: 5 meq/L
LDH [2]: 98.8 IU/L
Na [2]: 139 meq/L
PL [2]: 164.6 mg/dL
RALB [2]: 3.9 g/dL
TBIL [2]: 0.3 mg/dL
TC [2]: 99.6 mg/dL
TG [2]: 36 mg/dL
TP [2]: 5.9 g/dL
gamma-GTP [2]: 1 IU/L
A/G [3]: 2
ALP [3]: 739.4 IU/L
ALT [3]: 34 IU/L
AST [3]: 53.8 IU/L
BUN [3]: 19.6 mg/dL
CRE [3]: 0.5 mg/dL
Ca [3]: 11.1 mg/dL
Cl [3]: 105.4 meq/L
DBIL [3]: 0.068 mg/dL
GLC [3]: 194 mg/dL
IP [3]: 6.8 mg/dL
K [3]: 4.8 meq/L
LDH [3]: 81.2 IU/L
Na [3]: 138.6 meq/L
PL [3]: 212.4 mg/dL
RALB [3]: 4.2 g/dL
TBIL [3]: 0.3 mg/dL
TC [3]: 115.8 mg/dL
TG [3]: 88.4 mg/dL
TP [3]: 6.4 g/dL
gamma-GTP [3]: 1 IU/L
A/G [4]: 1.7
ALP [4]: 603 IU/L
ALT [4]: 41.8 IU/L
AST [4]: 52 IU/L
BUN [4]: 21 mg/dL
CRE [4]: 0.6 mg/dL
Ca [4]: 11 mg/dL
Cl [4]: 105.2 meq/L
DBIL [4]: 0.022 mg/dL
GLC [4]: 183.4 mg/dL
IP [4]: 6.4 mg/dL
K [4]: 4.4 meq/L
LDH [4]: 66.2 IU/L
Na [4]: 139.4 meq/L
PL [4]: 195.6 mg/dL
RALB [4]: 4.3 g/dL
TBIL [4]: 0.3 mg/dL
TC [4]: 99.2 mg/dL
TG [4]: 104 mg/dL
TP [4]: 6.9 g/dL
gamma-GTP [4]: 1.6 IU/L
TERMINAL_BW [5]: 168.7 g
APTT [5]: 14.2 s
Bas [5]: 0%
Eos [5]: 1%
Fbg [5]: 193.7 mg/dL
Hb [5]: 14.6 g/dL
Ht [5]: 43.8%
Lym [5]: 80.8%
MCH [5]: 21 pg
MCHC [5]: 33.2%
MCV [5]: 63.2 fL
Mono [5]: 4.8%
Neu [5]: 13.6%
PT [5]: 11.5 s
Plat [5]: 117.7 x10_4/uL
RBC [5]: 693.6 x10_4/ul
Ret [5]: 3.5%
WBC [5]: 97.2 x10_2/uL
KIDNEY_L [5]: 0.8 g
KIDNEY_R [5]: 0.8 g
KIDNEY_TOTAL [5]: 1.6 g
LIVER [5]: 9.5 g
A/G [5]: 2.2
ALP [5]: 1111.8 IU/L
ALT [5]: 54.6 IU/L
AST [5]: 72 IU/L
BUN [5]: 16 mg/dL
CRE [5]: 0.5 mg/dL
Ca [5]: 10.9 mg/dL
Cl [5]: 106 meq/L
DBIL [5]: 0.072 mg/dL
GLC [5]: 178.2 mg/dL
IP [5]: 8 mg/dL
K [5]: 4.8 meq/L
LDH [5]: 162 IU/L
Na [5]: 139.6 meq/L
PL [5]: 168 mg/dL
RALB [5]: 3.8 g/dL
TBIL [5]: 0.3 mg/dL
TC [5]: 95.2 mg/dL
TG [5]: 30.2 mg/dL
TP [5]: 5.6 g/dL
gamma-GTP [5]: 1.8 IU/L
TERMINAL_BW [6]: 202.2 g
TERMINAL_BW [7]: 250.7 g
TERMINAL_BW [8]: 305.5 g
APTT [6]: 16.5 s
Bas [6]: 0%
Eos [6]: 1%
Fbg [6]: 236 mg/dL
Hb [6]: 13.3 g/dL
Ht [6]: 40.2%
Lym [6]: 81.2%
MCH [6]: 20.5 pg
MCHC [6]: 33%
MCV [6]: 62.2 fL
Mono [6]: 3.6%
Neu [6]: 14.2%
PT [6]: 11.5 s
Plat [6]: 121.9 x10_4/uL
RBC [6]: 646.6 x10_4/ul
Ret [6]: 5.4%
WBC [6]: 152.2 x10_2/uL
APTT [7]: 17.3 s
Bas [7]: 0%
Eos [7]: 1%
Fbg [7]: 238 mg/dL
Hb [7]: 13.5 g/dL
Ht [7]: 40.8%
Lym [7]: 77.6%
MCH [7]: 20 pg
MCHC [7]: 33.1%
MCV [7]: 60.5 fL
Mono [7]: 7.8%
Neu [7]: 13.8%
PT [7]: 11.4 s
Plat [7]: 129.9 x10_4/uL
RBC [7]: 674.8 x10_4/ul
Ret [7]: 5.1%
WBC [7]: 131.3 x10_2/uL
APTT [8]: 16.9 s
Bas [8]: 0%
Eos [8]: 1.2%
Fbg [8]: 229.8 mg/dL
Hb [8]: 14.7 g/dL
Ht [8]: 44.2%
Lym [8]: 79.4%
MCH [8]: 18.4 pg
MCHC [8]: 33.2%
MCV [8]: 55.3 fL
Mono [8]: 5.4%
Neu [8]: 14.2%
PT [8]: 11.4 s
Plat [8]: 120.2 x10_4/uL
RBC [8]: 800.8 x10_4/ul
Ret [8]: 2.9%
WBC [8]: 123.8 x10_2/uL
KIDNEY_L [6]: 0.9 g
KIDNEY_R [6]: 0.9 g
KIDNEY_TOTAL [6]: 1.8 g
KIDNEY_L [7]: 1.1 g
KIDNEY_R [7]: 1.1 g
KIDNEY_TOTAL [7]: 2.2 g
KIDNEY_L [8]: 1.2 g
KIDNEY_R [8]: 1.2 g
KIDNEY_TOTAL [8]: 2.4 g
LIVER [6]: 11.5 g
LIVER [7]: 14.4 g
LIVER [8]: 16.2 g
A/G [6]: 2
ALP [6]: 807 IU/L
ALT [6]: 43.8 IU/L
AST [6]: 54.4 IU/L
BUN [6]: 13 mg/dL
CRE [6]: 0.6 mg/dL
Ca [6]: 10.9 mg/dL
Cl [6]: 104.2 meq/L
DBIL [6]: 0.058 mg/dL
GLC [6]: 180.2 mg/dL
IP [6]: 7.2 mg/dL
K [6]: 4.9 meq/L
LDH [6]: 181 IU/L
Na [6]: 139.2 meq/L
PL [6]: 182.2 mg/dL
RALB [6]: 4.1 g/dL
TBIL [6]: 0.2 mg/dL
TC [6]: 101.4 mg/dL
TG [6]: 33.4 mg/dL
TP [6]: 6.2 g/dL
gamma-GTP [6]: 1.4 IU/L
A/G [7]: 1.9
ALP [7]: 789 IU/L
ALT [7]: 52.8 IU/L
AST [7]: 62.8 IU/L
BUN [7]: 16.8 mg/dL
CRE [7]: 0.6 mg/dL
Ca [7]: 11 mg/dL
Cl [7]: 106.4 meq/L
DBIL [7]: 0.072 mg/dL
GLC [7]: 181 mg/dL
IP [7]: 6.8 mg/dL
K [7]: 4.9 meq/L
LDH [7]: 188 IU/L
Na [7]: 139.8 meq/L
PL [7]: 198.6 mg/dL
RALB [7]: 4 g/dL
TBIL [7]: 0.2 mg/dL
TC [7]: 106.4 mg/dL
TG [7]: 49.4 mg/dL
TP [7]: 6.2 g/dL
gamma-GTP [7]: 1.2 IU/L
A/G [8]: 1.7
ALP [8]: 689.6 IU/L
ALT [8]: 67.2 IU/L
AST [8]: 63 IU/L
BUN [8]: 19.6 mg/dL
CRE [8]: 0.6 mg/dL
Ca [8]: 11.2 mg/dL
Cl [8]: 106.6 meq/L
DBIL [8]: 0.046 mg/dL
GLC [8]: 177.6 mg/dL
IP [8]: 6.8 mg/dL
K [8]: 4.6 meq/L
LDH [8]: 147.2 IU/L
Na [8]: 139.2 meq/L
PL [8]: 222.8 mg/dL
RALB [8]: 4.4 g/dL
TBIL [8]: 0.2 mg/dL
TC [8]: 121.8 mg/dL
TG [8]: 70.8 mg/dL
TP [8]: 6.9 g/dL
gamma-GTP [8]: 0.6 IU/L

Reference: ChEMBL document CHEMBL3885861, “Open TG-GATES”
